These results are taken from ChEMBL document CHEMBL1201862, “PubChem BioAssay data set” (2004).

Active and inactive are the calls of the source.

For one assay, the system named is Escherichia coli. Put plainly: microbe, parasite or virus in culture.
A short description of the next assay: cells. The format is functional.
Assay [1] is described as follows: microbe, parasite or virus in culture. The conditions noted are these: Mycobacterium tuberculosis. The assay is classed as functional.
Assay [2] deals with T1, Replicative DNA helicase DnaB (Mycobacterium tuberculosis, UniProt P9WMR3).
T1 sequence (P9WMR3 whole entry): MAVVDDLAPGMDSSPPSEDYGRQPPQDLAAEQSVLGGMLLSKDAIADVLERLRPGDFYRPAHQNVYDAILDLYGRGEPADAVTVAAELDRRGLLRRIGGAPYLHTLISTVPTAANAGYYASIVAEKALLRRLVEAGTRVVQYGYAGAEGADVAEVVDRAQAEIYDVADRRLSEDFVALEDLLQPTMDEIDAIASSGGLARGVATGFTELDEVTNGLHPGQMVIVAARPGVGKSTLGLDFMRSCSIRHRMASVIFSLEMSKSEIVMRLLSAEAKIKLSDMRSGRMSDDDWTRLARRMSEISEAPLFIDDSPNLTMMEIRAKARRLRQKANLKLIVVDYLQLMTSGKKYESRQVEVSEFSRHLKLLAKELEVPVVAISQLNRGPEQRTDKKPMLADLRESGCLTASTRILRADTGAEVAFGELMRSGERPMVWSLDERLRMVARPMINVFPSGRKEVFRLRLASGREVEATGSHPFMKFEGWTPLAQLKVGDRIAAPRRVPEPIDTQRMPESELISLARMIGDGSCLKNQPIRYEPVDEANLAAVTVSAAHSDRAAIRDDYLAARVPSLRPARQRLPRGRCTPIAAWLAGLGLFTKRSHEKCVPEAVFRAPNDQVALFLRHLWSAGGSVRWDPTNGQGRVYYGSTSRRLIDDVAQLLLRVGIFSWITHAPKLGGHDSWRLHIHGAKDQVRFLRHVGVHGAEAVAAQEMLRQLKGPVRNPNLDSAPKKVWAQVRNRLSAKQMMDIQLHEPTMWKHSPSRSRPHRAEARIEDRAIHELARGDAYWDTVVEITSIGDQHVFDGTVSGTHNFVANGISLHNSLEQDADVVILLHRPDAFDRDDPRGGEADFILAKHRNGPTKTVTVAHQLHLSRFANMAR
Kind of assay: DnaB intein splicing inhibitors, dose response, biochemical, cell-free fluorescence (AID 449749). The assay is classed as functional.

A further assay deals with T2, Protein RecA (Mycobacterium tuberculosis, UniProt P9WHJ3).
T2 sequence (P9WHJ3 whole entry): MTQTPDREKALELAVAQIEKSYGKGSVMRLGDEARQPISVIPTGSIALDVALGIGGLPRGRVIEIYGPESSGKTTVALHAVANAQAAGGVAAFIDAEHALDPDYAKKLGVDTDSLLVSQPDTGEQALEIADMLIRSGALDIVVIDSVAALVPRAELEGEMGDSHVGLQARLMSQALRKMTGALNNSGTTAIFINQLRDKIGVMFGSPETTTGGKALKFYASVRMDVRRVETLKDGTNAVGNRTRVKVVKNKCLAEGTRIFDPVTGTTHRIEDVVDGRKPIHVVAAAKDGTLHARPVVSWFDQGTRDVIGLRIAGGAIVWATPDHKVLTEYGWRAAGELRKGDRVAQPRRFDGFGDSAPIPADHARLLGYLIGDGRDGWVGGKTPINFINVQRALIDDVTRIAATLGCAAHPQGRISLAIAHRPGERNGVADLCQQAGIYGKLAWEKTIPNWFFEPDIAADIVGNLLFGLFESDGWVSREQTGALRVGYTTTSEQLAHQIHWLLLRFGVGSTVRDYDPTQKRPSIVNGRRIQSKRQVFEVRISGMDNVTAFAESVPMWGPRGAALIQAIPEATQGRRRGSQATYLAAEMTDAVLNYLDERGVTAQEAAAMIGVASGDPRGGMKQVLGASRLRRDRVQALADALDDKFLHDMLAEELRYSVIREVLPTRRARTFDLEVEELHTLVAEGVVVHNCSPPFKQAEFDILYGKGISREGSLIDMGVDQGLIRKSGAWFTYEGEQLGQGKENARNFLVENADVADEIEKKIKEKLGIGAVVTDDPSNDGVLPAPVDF
Put plainly: Fluorescence Cell-Free Homogeneous Dose Retest to Identify Inhibitors of RecA-Intein Splicing Activity. [Related pubchem assays (depositor defined):AID2097, AID2223, AID489010, AID492950]. The assay is classed as functional.

Assay [3] deals with Heat shock protein HSP 90-alpha (Homo sapiens, UniProt P07900). The format is functional, organism-based.
A short description of assay [4]: THP-1 cell cytotoxicity, dose response, cytotoxicity control for non-replicating M. tuberculosis project (AID 489025). The format is functional.
For assay [5], the system named is HEK293. Put plainly: cells. To be noted: Homo sapiens.
For assay [6], the target named is T3, Microphthalmia-associated transcription factor (Homo sapiens, UniProt O75030).
T3 sequence (O75030 whole entry): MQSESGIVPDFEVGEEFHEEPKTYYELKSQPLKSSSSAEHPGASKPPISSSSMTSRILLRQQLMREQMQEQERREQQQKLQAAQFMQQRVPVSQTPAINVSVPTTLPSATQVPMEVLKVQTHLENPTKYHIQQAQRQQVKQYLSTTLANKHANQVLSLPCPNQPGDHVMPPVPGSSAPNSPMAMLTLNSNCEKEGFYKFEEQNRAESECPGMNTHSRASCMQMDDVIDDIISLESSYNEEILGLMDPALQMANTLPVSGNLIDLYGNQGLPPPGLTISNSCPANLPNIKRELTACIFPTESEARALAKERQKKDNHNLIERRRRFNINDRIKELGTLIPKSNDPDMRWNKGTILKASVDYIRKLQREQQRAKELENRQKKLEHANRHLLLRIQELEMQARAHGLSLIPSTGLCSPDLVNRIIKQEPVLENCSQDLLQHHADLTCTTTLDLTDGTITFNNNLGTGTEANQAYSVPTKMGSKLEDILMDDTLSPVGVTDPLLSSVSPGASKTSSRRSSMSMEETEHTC
Kind of assay: reducers of TRPM1 reporter luminescence, concentration series – cell-based, SK-MEL-5, cherry-picked, set 3, MITF inhibitor project, dose response (AID 493073).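 Note: SK-MEL-5 melanoma cells with luciferase driven by the MITF target TRPM1 promoter.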 The format is functional.

The nature of assay [7]: HepG2 cell cytotoxicity, dose response, cytotoxicity control for non-replicating M. tuberculosis project (AID 489018). The assay is classed as functional. The conditions noted are these: Mycobacterium tuberculosis.
Assay [8] concerns the target Induced myeloid leukemia cell differentiation protein Mcl-1 (Homo sapiens, UniProt Q07820). The format is functional.
Assay [9] deals with HEK293. Put plainly: cells. The conditions noted are these: Homo sapiens. This is another data set of the same source.
The target in assay [10] is Peroxisome proliferator-activated receptor gamma/Nuclear receptor coactivator 1 (Homo sapiens, UniProt P37231). Put plainly: TR-FRET dose response biochemical High Throughput Screening assay for agonists of the steroid receptor coactivator 1 (SRC-1) recruitment by the peroxisome proliferator-activated receptor gamma (PPAR gamma): non-selective agonists. [Related pubchem assays (depositor defined):AID1300, AID1808, AID504735, AID631]. The format is protein assay. (In general: In TR-FRET formats the signal depends on donor and acceptor labels being close together.)

The nature of assay [11]: HEK-293T cell viability reduction – luminescence, B-cell screen hits, cytotoxicity control for BCR NF-kB inhibitor project, dose response (AID 489021).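 Note: HEK-293T cells carrying an NF-kB luciferase reporter; cells exposed to compound for about 14 hours before viability readout.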 The format is functional, cell-based.
In assay [12] the target is Peroxisome proliferator-activated receptor gamma/Nuclear receptor coactivator 3 (Homo sapiens, UniProt P37231). Put plainly: TR-FRET dose response biochemical High Throughput Screening assay for agonists of the steroid receptor coactivator 3 (SRC-3) recruitment by the peroxisome proliferator-activated receptor gamma (PPAR gamma): non-selective agonists. [Related pubchem assays: 1301 (Confirmation screen.), 1048 (Primary screen.)]. The assay is classed as functional.
Chain of Peroxisome proliferator-activated receptor gamma/Nuclear receptor coactivator 3 (P37231 whole entry): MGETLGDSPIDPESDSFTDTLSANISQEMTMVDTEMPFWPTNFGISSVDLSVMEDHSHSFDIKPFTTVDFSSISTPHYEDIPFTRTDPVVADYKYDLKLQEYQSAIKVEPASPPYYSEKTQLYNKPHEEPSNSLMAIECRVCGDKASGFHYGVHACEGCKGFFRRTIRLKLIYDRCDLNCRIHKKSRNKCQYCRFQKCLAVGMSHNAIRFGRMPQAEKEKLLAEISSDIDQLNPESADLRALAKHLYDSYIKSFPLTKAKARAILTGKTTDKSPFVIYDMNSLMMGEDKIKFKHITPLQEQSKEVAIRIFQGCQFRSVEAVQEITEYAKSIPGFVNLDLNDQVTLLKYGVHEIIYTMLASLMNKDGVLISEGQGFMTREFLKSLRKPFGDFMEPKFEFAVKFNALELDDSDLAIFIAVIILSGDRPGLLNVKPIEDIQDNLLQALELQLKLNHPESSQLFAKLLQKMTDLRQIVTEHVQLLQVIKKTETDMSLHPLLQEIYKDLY
Chain of Peroxisome proliferator-activated receptor gamma/Nuclear receptor coactivator 3 (Q9Y6Q9 whole entry, further chain): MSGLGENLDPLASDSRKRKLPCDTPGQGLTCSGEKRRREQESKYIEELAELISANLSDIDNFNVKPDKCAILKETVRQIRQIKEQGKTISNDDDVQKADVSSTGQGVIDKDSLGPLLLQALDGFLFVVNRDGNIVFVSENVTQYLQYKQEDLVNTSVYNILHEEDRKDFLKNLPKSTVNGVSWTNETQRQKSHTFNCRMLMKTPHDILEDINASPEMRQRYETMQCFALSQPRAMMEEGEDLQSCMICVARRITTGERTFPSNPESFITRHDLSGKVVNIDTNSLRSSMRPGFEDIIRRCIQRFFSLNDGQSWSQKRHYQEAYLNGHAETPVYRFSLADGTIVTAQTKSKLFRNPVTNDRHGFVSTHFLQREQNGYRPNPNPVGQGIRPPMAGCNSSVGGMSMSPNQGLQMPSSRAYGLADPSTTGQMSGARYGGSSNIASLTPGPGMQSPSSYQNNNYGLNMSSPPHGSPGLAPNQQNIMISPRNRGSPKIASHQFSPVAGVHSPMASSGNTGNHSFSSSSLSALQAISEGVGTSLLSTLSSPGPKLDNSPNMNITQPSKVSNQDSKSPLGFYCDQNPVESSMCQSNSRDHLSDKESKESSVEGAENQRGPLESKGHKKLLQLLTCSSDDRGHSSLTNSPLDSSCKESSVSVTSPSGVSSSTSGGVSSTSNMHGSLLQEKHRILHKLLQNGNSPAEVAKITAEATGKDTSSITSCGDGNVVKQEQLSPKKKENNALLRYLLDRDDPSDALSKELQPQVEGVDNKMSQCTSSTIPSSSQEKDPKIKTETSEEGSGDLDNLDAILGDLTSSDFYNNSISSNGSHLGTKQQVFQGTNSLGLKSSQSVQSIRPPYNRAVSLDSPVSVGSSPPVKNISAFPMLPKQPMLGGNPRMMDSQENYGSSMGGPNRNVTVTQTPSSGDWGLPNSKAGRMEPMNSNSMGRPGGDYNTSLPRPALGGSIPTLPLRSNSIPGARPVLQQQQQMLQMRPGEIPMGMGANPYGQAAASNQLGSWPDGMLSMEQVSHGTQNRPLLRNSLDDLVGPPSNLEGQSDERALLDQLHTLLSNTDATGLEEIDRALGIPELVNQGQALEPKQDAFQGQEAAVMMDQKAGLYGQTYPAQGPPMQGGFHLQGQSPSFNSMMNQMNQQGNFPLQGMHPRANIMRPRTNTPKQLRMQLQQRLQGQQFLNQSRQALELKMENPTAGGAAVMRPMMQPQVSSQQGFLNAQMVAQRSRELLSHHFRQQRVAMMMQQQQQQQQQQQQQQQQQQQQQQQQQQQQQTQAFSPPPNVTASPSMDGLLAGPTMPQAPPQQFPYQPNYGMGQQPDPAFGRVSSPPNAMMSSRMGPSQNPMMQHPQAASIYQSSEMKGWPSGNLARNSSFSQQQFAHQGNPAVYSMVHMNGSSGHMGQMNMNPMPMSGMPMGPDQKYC

Assay [13] deals with Peroxisome proliferator-activated receptor gamma/Nuclear receptor coactivator 2 (Homo sapiens, UniProt P37231). Kind of assay: TR-FRET dose response biochemical High Throughput Screening assay for agonists of the steroid receptor coactivator 2 (SRC-2) recruitment by the peroxisome proliferator-activated receptor gamma (PPAR gamma): non-selective agonists. [Related pubchem assays: 1297, 1032 ]. The assay is classed as functional.
Chain of Peroxisome proliferator-activated receptor gamma/Nuclear receptor coactivator 2 (P37231 whole entry): as the sequence (P37231 whole entry) above
Chain of Peroxisome proliferator-activated receptor gamma/Nuclear receptor coactivator 2 (Q15596 whole entry, further chain): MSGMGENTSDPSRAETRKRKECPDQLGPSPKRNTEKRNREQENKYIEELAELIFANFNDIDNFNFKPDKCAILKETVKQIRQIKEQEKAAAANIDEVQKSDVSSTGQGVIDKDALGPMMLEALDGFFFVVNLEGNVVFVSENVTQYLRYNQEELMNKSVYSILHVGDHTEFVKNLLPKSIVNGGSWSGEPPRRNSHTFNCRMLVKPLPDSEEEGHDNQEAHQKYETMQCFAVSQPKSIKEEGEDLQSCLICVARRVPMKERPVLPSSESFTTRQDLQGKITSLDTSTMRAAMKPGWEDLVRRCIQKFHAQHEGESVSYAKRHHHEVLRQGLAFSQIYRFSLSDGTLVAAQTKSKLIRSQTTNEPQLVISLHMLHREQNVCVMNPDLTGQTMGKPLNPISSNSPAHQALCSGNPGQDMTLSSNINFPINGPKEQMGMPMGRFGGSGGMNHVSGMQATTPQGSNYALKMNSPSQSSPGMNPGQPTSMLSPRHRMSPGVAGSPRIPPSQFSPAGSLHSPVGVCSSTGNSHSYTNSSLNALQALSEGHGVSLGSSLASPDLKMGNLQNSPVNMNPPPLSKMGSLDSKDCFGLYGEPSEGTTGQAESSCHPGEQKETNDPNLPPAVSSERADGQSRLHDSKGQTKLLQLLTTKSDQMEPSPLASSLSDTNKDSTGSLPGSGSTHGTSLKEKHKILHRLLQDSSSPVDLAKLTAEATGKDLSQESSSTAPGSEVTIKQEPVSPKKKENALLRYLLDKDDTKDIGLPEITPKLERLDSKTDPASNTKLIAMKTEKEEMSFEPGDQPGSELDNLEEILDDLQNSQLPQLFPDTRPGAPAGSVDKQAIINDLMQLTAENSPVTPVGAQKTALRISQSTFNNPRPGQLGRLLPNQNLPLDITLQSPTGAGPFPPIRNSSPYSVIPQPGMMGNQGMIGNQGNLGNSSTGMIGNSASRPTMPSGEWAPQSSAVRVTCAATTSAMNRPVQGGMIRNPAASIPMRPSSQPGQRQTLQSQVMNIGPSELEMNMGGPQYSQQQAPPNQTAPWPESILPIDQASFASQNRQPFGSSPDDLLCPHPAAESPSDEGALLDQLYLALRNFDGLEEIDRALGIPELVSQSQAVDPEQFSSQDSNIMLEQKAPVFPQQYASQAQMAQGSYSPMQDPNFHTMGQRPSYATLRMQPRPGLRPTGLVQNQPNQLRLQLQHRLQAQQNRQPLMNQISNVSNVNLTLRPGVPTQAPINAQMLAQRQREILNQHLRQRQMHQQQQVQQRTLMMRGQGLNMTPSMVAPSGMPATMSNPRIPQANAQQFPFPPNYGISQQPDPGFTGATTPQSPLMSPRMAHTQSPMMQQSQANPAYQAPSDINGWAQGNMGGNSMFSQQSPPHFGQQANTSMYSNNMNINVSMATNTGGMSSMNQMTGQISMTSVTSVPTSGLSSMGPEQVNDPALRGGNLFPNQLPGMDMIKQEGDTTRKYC

The next assay relates to HeLa. Put plainly: ATP-based viability loss in HeLa cells – cell-based, CellTiter-Glo luminescence, cherry-pick samples, cytotoxicity control for MITF activator project, dose response (AID 540259). The assay is classed as functional. The conditions noted are these: Homo sapiens. A general note: In ATP-based viability assays light output follows the ATP content of the culture.

The target of the next assay is Beta-galactosidase (Escherichia coli, UniProt Q8VNN2). Kind of assay: PubChem AID 485352. The assay is classed as functional.
Chain of Beta-galactosidase (Q8VNN2 whole entry, the tested form may be a part): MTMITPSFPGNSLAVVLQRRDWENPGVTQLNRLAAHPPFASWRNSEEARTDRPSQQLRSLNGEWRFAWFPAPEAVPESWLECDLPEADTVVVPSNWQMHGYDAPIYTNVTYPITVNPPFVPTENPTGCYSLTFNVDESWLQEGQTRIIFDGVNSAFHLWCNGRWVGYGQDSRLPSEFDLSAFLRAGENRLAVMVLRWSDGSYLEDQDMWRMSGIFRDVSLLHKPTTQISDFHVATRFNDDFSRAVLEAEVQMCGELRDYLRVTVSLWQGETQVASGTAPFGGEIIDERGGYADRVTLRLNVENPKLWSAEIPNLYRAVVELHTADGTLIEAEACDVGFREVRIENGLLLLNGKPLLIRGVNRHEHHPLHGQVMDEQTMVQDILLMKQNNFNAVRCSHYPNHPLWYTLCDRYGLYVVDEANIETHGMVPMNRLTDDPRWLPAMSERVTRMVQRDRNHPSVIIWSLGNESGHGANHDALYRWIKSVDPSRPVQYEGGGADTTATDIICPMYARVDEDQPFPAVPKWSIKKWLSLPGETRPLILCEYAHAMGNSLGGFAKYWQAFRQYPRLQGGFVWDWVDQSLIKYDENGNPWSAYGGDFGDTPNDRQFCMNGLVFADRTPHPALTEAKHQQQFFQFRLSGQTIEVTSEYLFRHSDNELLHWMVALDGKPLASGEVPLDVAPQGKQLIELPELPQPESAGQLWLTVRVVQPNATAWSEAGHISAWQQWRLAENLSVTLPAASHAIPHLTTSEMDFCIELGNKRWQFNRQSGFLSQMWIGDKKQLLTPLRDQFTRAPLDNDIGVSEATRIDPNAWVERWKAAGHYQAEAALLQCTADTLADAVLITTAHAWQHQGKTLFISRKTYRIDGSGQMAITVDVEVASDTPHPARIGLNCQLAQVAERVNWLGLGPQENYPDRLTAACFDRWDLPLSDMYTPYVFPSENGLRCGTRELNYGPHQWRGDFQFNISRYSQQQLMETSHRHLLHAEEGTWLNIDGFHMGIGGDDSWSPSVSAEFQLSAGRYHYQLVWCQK
The target in assay [14] is T4, Oxysterols receptor LXR-beta (Homo sapiens, UniProt P55055).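 Note: agonist activity at LXR measured by a cell-based luminescence readout across a dose range, run as a counterscreen for daf-12 agonists; HEK293 cells with Gal4-LXR fusion and GAL4-driven luciferase reporter; potency for activation of Gal4-LXR reporter so compounds are agonists.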
T4 sequence (P55055 whole entry): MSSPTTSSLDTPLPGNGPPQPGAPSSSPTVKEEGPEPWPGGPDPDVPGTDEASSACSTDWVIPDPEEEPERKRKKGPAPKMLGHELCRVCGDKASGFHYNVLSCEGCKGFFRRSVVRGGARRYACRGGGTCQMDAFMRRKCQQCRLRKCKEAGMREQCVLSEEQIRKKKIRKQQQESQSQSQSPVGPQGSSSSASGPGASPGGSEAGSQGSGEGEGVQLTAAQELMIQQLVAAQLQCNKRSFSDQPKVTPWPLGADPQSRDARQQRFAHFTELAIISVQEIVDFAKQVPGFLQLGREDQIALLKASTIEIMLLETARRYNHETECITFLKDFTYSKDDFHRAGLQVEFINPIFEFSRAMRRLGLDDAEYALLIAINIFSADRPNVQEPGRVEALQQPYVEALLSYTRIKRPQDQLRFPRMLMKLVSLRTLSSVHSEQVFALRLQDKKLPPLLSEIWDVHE
The format is functional, cell-based.

Assay [15] deals with T5, Type-1 angiotensin II receptor (Homo sapiens, UniProt P30556).
T5 sequence (P30556 whole entry): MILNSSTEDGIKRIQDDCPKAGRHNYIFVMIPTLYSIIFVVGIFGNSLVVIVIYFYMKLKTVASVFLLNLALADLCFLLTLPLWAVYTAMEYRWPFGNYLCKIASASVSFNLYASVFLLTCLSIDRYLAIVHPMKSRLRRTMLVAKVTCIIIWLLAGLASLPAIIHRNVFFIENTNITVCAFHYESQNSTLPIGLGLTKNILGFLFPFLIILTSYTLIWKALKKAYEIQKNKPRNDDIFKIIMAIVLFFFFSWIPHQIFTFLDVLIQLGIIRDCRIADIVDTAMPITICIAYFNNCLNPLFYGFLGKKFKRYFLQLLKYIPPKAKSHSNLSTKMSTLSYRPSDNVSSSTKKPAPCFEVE
Kind of assay: antagonism of angiotensin II type 1 receptor – cell-based, uHTS hits, selectivity assay for APJ receptor antagonist project, dose response (AID 463214).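 Note: antagonist potency against angiotensin II stimulated AT1 response.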 The format is functional.

For the molecule `COc1ccc(OC2OC3COC(c4ccco4)OC3C(O)C2NC(C)=O)cc1` (stereo unspecified), the AC50 in the assay with Escherichia coli was 32.1 µM (active).

Turning to `CC(C(=O)NC1CCCC1)N1CCN(S(=O)(=O)c2ccc(C(C)(C)C)cc2)CC1` (stereo unspecified), the AC50 in the assay on Escherichia coli was 70.4 µM (active).

Regarding `Cc1ccc(CNC(=O)C2CCCN2C(=O)Nc2ccccc2)cc1` (stereo unspecified), the half-maximal activity concentration (AC50) with Escherichia coli is 33.2 µM (active).

Turning to `O=C1Nc2ccc(Br)cc2/C1=C/C(=O)c1ccc2c(c1)OCO2`, the IC50 in “cells” is 15.2 µM (active); in assay [8], 1.29 µM (active). For the same molecule, the values for the CC50 in [1], in assay [4] and in assay [7] were 32.2 µM (active), 11.9 µM (active) and 18.9 µM (active), respectively. Moreover, the AC50 in assay [2] is 36.3 µM (active); in [3], 2.17 µM (active); in assay [6], 25.5 µM (active). For the same molecule, the results for the EC50 on Protein RecA, with HEK293 [5] and in the assay on HEK293 [9] were 1.46 µM (active), > 59.6 µM (inactive) and > 59.6 µM (inactive), respectively.

Regarding `Cn1c(=O)cc(SCC(=O)N2CCCC2)c2cc(Cl)ccc21`, the values for the EC50 in assay [10], in assay [12] and in assay [13] were > 79.4 µM (inactive), > 79.4 µM (not active) and > 79.4 µM (not active), respectively. In assay [11], the IC50 is > 80 µM (inactive).

`CN(C1=NC(=O)/C(=C2\C(=O)Nc3ccccc32)S1)c1ccc(O)cc1`: in the assay on HeLa, the AC50 is 45.4 µM (active).

In the case of `COc1cccc(/C=C/c2ccc3cccc(O)c3n2)c1`, the EC50 was > 40 µM (inactive) on Beta-galactosidase, > 0.0091 µM (active) in the assay on HEK293 [5], > 67.5 µM (inactive) in assay [14] and > 59.7 µM (inactive) in the assay on HEK293 [9]. Besides, in assay [3], the AC50 was 24.4 µM (active). Also, the half-maximal inhibitory concentration (IC50) in assay [15] is 15.1 µM (active).

In the case of `COc1ccc2[nH]c(-c3ccccc3)cc2c1`, in the assay on HeLa, the AC50 was 55.1 µM (active).

As a reminder, the AC50 is the concentration at which the activity in the assay is half-maximal. What is called IC50 is the point on the concentration scale where inhibition reaches its midpoint. For orientation: EC50 means the concentration needed to bring the measured effect to its halfway point.
